{"source": "paper PMC5602538", "about": "“Assessment of the Drug Interaction Potential of Unconjugated and GalNAc3-Conjugated 2′-MOE-ASOs” (Molecular Therapy. Nucleic Acids, 2017)", "key": {"CYP2C19": {"molecular_target": "CYP2C19 (Homo sapiens, UniProt P33261)", "sequence (P33261 whole entry)": "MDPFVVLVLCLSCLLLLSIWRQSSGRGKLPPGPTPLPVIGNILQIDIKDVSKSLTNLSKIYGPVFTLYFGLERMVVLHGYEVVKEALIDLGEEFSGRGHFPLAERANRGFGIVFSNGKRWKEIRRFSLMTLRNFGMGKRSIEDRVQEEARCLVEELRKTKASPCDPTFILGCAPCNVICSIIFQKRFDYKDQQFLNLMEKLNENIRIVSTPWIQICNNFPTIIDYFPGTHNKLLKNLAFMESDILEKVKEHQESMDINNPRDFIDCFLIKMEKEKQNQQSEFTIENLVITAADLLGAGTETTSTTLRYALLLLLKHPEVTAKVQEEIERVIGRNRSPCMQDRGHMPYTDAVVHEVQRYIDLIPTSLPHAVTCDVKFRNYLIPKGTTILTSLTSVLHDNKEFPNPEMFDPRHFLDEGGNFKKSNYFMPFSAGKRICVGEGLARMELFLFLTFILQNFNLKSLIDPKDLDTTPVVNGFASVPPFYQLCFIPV", "conditions": "hepatocytes", "method": "(§1) Preincubations were performed in 50 μL of Williams’ Medium E with 2 mM salicylamide. The salicylamide was included to reduce possible phase II conjugation to the precursor phase I metabolites. […] Human hepatocytes (pooled from 5 donors) were thawed and prepared according to the vendor’s protocol. […] Incubations were carried out at 37°C with 5% CO2. The incubation time was 45 min for phenacetin, diclofenac, dextromethorphan, midazolam, bupropion, chlorzoxazone, and testosterone and 90 min for paclitaxel and (S)-mephenytoin. The reactions were stopped by adding 200 μL of ice-cold acetonitrile (can) with tolbutamide (100 ng/mL) as the internal standard to 100 μL of hepatocyte suspension (1:2, v/v). The 96-well plate was then vortexed at 1,700 rpm for 3 min and centrifuged at 3,500 rpm for 10 min at 20°C. The supernatants were analyzed using liquid chromatography-tandem MS (LC-MS/MS)."}, "[1]": {"system": "OAT1, OAT3, OCT1, OCT2, OATP1B1, OATP1B3, BCRP, P-gp, and BSEP", "assay": "Inhibition studies of major SLC and ABC transporters, all transporters evaluated", "assay_type": "in vitro ADME", "conditions": "100 μM ASO", "procedure": "A 96-well cell culture plate containing a monolayer of MDCK-II cells grown on a permeable support and a corresponding receiver tray was used. The basolateral compartment of the culture plate and wells were washed with warm HBSS three times, with wells of the culture plate serving as the apical compartment. The wash was aspirated by adding 150 μL of 37°C HBSS to both compartments. Plates were incubated at 37°C with orbital shaking at 60 rpm for 15 min for OAT1, OAT3, OCT1, OCT2, OATP1B1, and OATP1B3 (±5 min). The pre-incubation buffer from both compartments was aspirated and 150 μL of the following was added to the basal compartment. For the probe substrate transport assay, HBSS in each well contained one of following probe substrates (positive control for transport), OCT1, 2 μM [^3H]-MPP^+; OCT2, 10 μM [^14C]-metformin; OAT1, 2 μM [^3H]-p-aminohippurate; OAT3, 10 μM [^3H]-p-aminohippurate; OATP1B1, 2 μM [^3H]-estradiol-17 β-D-glucuronide; and OATP1B3, 2 μM [^3H]-cholecystokinin octapeptide (CCK-8). […] Inhibition studies contained HBSS in each well, the probe substrate, and 100 μM of each test article, whereas substrate studies contained HBSS in each well and 10 μM of each test article. Plates were incubated at 37°C with orbital shaking at 60 rpm for 5 min. Both sides of the permeable support were washed four times with ice-cold PBS and 60 μL of cell extraction solution was added to each well. Plates were agitated for 15 min at 120 rpm, after which a 30-μL sample of the extract was collected. Samples containing probe substrate were added to 200 μL of scintillation fluid and counted on a 1450 Microbeta (PerkinElmer), whereas samples containing the test article were kept frozen. Test article concentrations, including control samples, were evaluated by an LC-MS method.\nMDCK-MDR1 cells and MDCK-II cells transfected with BCRP were washed with HBSS at 37°C. Wells of the culture plate served as the apical compartment, and 150 μL of HBSS solutions was added to the apical wells. […]"}, "CYP2D6": {"molecular_target": "CYP2D6 (Homo sapiens, UniProt P10635)", "sequence (P10635 whole entry)": "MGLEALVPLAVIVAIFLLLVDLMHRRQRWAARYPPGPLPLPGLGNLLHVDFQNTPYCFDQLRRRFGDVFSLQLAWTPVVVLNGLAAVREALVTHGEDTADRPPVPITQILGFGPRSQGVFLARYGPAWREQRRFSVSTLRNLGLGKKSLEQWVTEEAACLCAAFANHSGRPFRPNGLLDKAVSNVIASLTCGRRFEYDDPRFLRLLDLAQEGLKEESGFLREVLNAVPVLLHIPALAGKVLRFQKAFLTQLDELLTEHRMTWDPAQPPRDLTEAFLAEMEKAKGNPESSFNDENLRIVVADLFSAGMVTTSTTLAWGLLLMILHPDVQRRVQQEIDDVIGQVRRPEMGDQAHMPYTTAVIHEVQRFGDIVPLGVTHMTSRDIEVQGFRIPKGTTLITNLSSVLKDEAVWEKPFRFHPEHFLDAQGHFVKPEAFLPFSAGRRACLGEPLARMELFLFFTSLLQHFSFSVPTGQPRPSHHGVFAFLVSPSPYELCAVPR", "conditions": "hepatocytes", "method": "as §1"}, "CYP2B6": {"molecular_target": "T1, CYP2B6 (Homo sapiens, UniProt P20813)", "T1 sequence (P20813 1-491)": "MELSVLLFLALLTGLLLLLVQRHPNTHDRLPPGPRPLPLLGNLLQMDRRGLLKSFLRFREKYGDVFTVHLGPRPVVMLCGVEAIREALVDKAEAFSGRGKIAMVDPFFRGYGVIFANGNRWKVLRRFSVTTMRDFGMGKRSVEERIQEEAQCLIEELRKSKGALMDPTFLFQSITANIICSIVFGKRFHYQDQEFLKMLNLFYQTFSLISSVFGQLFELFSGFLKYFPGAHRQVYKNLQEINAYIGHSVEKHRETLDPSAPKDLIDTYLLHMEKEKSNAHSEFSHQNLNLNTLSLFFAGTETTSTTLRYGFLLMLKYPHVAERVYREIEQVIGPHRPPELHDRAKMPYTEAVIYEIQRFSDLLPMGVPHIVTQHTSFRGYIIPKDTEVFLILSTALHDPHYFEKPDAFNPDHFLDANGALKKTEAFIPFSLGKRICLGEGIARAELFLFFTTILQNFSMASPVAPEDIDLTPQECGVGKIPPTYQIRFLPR", "conditions": "hepatocytes", "method": "as §1"}, "CYP3A4": {"molecular_target": "CYP3A4 (Homo sapiens, UniProt P08684)", "sequence (P08684 whole entry)": "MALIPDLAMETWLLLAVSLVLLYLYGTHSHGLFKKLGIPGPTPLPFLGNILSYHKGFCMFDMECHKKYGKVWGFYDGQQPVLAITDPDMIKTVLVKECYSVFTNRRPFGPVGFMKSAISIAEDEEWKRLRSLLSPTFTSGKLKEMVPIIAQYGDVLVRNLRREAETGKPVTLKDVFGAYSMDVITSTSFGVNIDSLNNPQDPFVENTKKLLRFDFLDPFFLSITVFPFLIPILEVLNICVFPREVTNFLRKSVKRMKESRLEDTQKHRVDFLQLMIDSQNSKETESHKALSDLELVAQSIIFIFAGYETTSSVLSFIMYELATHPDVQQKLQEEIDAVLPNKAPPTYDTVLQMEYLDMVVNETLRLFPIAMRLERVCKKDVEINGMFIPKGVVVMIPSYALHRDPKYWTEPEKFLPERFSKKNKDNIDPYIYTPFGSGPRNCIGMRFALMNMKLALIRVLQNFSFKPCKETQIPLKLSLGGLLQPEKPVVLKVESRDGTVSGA", "conditions": "hepatocytes", "method": "as §1"}, "CYP2C9": {"molecular_target": "CYP2C9 (Homo sapiens, UniProt P11712)", "sequence (P11712 whole entry)": "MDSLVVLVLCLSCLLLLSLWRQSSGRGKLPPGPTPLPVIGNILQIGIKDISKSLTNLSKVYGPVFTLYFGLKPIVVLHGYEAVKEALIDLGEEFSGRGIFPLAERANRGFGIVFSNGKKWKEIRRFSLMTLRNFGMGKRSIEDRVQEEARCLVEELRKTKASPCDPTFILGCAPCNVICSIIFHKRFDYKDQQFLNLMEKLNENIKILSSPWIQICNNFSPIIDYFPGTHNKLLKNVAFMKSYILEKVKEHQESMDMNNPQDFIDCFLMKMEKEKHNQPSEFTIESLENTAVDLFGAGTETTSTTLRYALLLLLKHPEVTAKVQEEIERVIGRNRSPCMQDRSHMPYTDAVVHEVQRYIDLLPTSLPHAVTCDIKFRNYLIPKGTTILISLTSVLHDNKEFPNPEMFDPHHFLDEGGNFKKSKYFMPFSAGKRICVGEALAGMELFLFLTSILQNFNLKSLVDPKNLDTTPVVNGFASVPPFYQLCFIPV", "conditions": "hepatocytes", "method": "as §1"}, "CYP2C8": {"molecular_target": "T2, CYP2C8 (Homo sapiens, UniProt P10632)", "T2 sequence (P10632 1-490)": "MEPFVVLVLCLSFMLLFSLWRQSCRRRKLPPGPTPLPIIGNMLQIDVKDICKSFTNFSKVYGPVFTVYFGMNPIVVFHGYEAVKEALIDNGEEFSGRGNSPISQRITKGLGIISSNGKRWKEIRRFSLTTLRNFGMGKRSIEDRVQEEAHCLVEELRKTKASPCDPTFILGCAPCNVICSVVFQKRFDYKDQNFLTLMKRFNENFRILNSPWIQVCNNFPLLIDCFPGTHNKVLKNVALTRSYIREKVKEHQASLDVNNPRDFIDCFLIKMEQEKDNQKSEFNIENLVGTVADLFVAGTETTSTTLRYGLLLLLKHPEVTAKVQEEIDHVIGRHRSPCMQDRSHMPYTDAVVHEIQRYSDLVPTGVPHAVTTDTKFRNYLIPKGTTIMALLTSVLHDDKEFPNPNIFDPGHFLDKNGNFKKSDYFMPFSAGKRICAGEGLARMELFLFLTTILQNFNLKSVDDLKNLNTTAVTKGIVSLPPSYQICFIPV", "conditions": "hepatocytes", "method": "as §1"}, "CYP2E1": {"molecular_target": "CYP2E1 (Homo sapiens, UniProt P05181)", "sequence (P05181 whole entry)": "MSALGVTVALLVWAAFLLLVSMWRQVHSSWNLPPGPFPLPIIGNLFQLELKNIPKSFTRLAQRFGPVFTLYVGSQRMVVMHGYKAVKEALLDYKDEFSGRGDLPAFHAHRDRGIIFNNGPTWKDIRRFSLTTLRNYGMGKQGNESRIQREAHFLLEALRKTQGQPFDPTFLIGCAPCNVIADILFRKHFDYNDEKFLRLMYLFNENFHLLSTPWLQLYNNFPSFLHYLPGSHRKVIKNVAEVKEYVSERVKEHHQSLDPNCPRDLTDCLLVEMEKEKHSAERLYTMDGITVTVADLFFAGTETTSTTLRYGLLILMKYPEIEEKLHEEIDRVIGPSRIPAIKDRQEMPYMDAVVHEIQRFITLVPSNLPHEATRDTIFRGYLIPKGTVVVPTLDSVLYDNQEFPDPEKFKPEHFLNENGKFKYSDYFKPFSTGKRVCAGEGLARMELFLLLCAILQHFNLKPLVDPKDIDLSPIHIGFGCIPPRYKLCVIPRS", "conditions": "hepatocytes", "method": "as §1"}}, "note": "pIC50: −log10 of the molar value. {GalNAc3} = trishexylamino-C6 triantennary GalNAc conjugate; e = 2'-O-(2-methoxyethyl) (MOE); d = 2'-deoxy (DNA)"}
{"substance": "ISIS 304801: 20-mer (5-10-5) 2′-MOE gapmer PS backbone antisense inhibitor of apoC-III, sequence AGCTTCTTGTCCAGCTTTAT (sugars from the 5' end e5 d10 e5, all phosphorothioate, methylation of C not given here)", "values": [{"measurement": "pIC50", "setting": "CYP2C19", "result": "< 4.00"}, {"measurement": "Inhibitor of BCRP, P-gp, OAT1, OAT3, OCT1, OCT2, OATP1B1, OATP1B3, or BSEP (conclusion)", "setting": "[1]", "result": "not considered inhibitors"}, {"measurement": "pIC50", "setting": "CYP2D6", "result": "< 4.00"}, {"measurement": "pIC50", "setting": "CYP2B6", "result": "< 4.00"}, {"measurement": "pIC50", "setting": "CYP3A4", "result": "< 4.00"}, {"measurement": "pIC50", "setting": "CYP2C9", "result": "< 4.00"}, {"measurement": "pIC50", "setting": "CYP2C8", "result": "< 4.00"}, {"measurement": "pIC50", "setting": "CYP2E1", "result": "< 4.00"}]}
{"substance": "ISIS 420915: 20-mer 2′-MOE gapmer PS backbone antisense inhibitor of transthyretin, sequence TCTTGGTTACATGAAATCCC (all phosphorothioate, sugars by position and methylation of C not given here; 2'-MOE gapmer)", "values": [{"measurement": "pIC50", "setting": "CYP2C19", "result": "< 4.00"}, {"measurement": "Inhibitor of BCRP, P-gp, OAT1, OAT3, OCT1, OCT2, OATP1B1, OATP1B3, or BSEP (conclusion)", "setting": "[1]", "result": "not considered inhibitors"}, {"measurement": "pIC50", "setting": "CYP2D6", "result": "< 4.00"}, {"measurement": "pIC50", "setting": "CYP2B6", "result": "< 4.00"}, {"measurement": "pIC50", "setting": "CYP3A4", "result": "< 4.00"}, {"measurement": "pIC50", "setting": "CYP2C9", "result": "< 4.00"}, {"measurement": "pIC50", "setting": "CYP2C8", "result": "< 4.00"}, {"measurement": "pIC50", "setting": "CYP2E1", "result": "< 4.00"}]}
{"substance": "ISIS 681257: 20-mer 2′-MOE gapmer PS/PO mixed backbone ASO conjugated to 5′-trishexylamino GalNAc3, targets Lp(a), sequence TGCTCCGTTGGTGCTTGTTC (5' {GalNAc3}, sugars by position and backbone not given here; 2'-MOE gapmer with mixed PS/PO backbone)", "values": [{"measurement": "Inhibitor of BCRP, P-gp, OAT1, OAT3, OCT1, OCT2, OATP1B1, OATP1B3, or BSEP (conclusion)", "setting": "[1]", "result": "not considered inhibitors"}]}
